# Test results published in US10765114B2, “4-amino-6-(pyridyl and 2-substitutedphenyl)-picolinates and 6-amino-2-(pyridyl and 2-substitutedphenyl)-pyrimidine-4-carboxylates and their use as herbicides” (Dow AgroSciences LLC, priority 2013, dated 2020).
# Tested on: Key Grass and Sedge Weeds as well as Grass Crops
# Experiment: Post-Emergent Test II (Table 6)
# Type: in vivo
# Settings: post-emergence, 336 h, CYPSS, 70 g ai/ha, 14 days after application, read-out: Visual Growth Reduction (%) 14 Days After Application CYPSS
# Summary of the method: (§1)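 Visual injury ratings (0 = no injury, 100 = complete kill) were taken 14 days after treatment relative to untreated plants. Seedlings at the first or second true leaf stage received an overhead spray at 187 L/ha, and solvent-blank sprayed plants served as controls.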
row,SMILES,pest or weed control at 70 g/ha
1,Cc1c(-c2cc(N)c(Cl)c(C(=O)O)n2)ccc(Cl)c1F [Compound 52],85 to 94%

# Same assay, conditions: post-emergence, 336 h, CYPSS, 140 g ai/ha, 14 days after application, read-out: Visual Growth Reduction (%) 14 Days After Application CYPSS
row,SMILES,pest or weed control at 140 g/ha
1,Cc1c(-c2cc(N)c(Cl)c(C(=O)O)n2)ccc(Cl)c1F [Compound 52],95 to 100%

# Same assay, conditions: post-emergence, 336 h, DIGSA: crabgrass (Digitaria sanguinalis), 70 g ai/ha, 14 days after application, read-out: Visual Growth Reduction (%) 14 Days After Application DIGSA
row,SMILES,pest or weed control at 70 g/ha
1,Cc1c(-c2cc(N)c(Cl)c(C(=O)O)n2)ccc(Cl)c1F [Compound 52],0 to 29%

# Same assay, conditions: post-emergence, 336 h, DIGSA: crabgrass (Digitaria sanguinalis), 140 g ai/ha, 14 days after application, read-out: Visual Growth Reduction (%) 14 Days After Application DIGSA
row,SMILES,pest or weed control at 140 g/ha
1,Cc1c(-c2cc(N)c(Cl)c(C(=O)O)n2)ccc(Cl)c1F [Compound 52],30 to 44%

# Same assay, conditions: post-emergence, 336 h, ECHSS, 70 g ai/ha, 14 days after application, read-out: Visual Growth Reduction (%) 14 Days After Application ECHSS
row,SMILES,pest or weed control at 70 g/ha
1,Cc1c(-c2cc(N)c(Cl)c(C(=O)O)n2)ccc(Cl)c1F [Compound 52],30 to 44%

# Same assay, conditions: post-emergence, 336 h, ECHSS, 140 g ai/ha, 14 days after application, read-out: Visual Growth Reduction (%) 14 Days After Application ECHSS
row,SMILES,pest or weed control at 140 g/ha
1,Cc1c(-c2cc(N)c(Cl)c(C(=O)O)n2)ccc(Cl)c1F [Compound 52],45 to 59%

# Same assay, conditions: post-emergence, 336 h, ORYSS (crop), 70 g ai/ha, 14 days after application, read-out: Visual Growth Reduction (%) 14 Days After Application ORYSS
row,SMILES,pest or weed control at 70 g/ha
1,Cc1c(-c2cc(N)c(Cl)c(C(=O)O)n2)ccc(Cl)c1F [Compound 52],0 to 29%

# Same assay, conditions: post-emergence, 336 h, ORYSS (crop), 140 g ai/ha, 14 days after application, read-out: Visual Growth Reduction (%) 14 Days After Application ORYSS
row,SMILES,pest or weed control at 140 g/ha
1,Cc1c(-c2cc(N)c(Cl)c(C(=O)O)n2)ccc(Cl)c1F [Compound 52],0 to 29%

# Same assay, conditions: post-emergence, 336 h, SETFA: giant foxtail (Setaria faberi), 70 g ai/ha, 14 days after application, read-out: Visual Growth Reduction (%) 14 Days After Application SETFA
row,SMILES,pest or weed control at 70 g/ha
1,Cc1c(-c2cc(N)c(Cl)c(C(=O)O)n2)ccc(Cl)c1F [Compound 52],0 to 29%

# Same assay, conditions: post-emergence, 336 h, SETFA: giant foxtail (Setaria faberi), 140 g ai/ha, 14 days after application, read-out: Visual Growth Reduction (%) 14 Days After Application SETFA
row,SMILES,pest or weed control at 140 g/ha
1,Cc1c(-c2cc(N)c(Cl)c(C(=O)O)n2)ccc(Cl)c1F [Compound 52],45 to 59%

# Same assay, conditions: post-emergence, 336 h, SORVU: grain sorghum (Sorghum vulgare), 70 g ai/ha, 14 days after application, read-out: Visual Growth Reduction (%) 14 Days After Application SORVU
row,SMILES,pest or weed control at 70 g/ha
1,Cc1c(-c2cc(N)c(Cl)c(C(=O)O)n2)ccc(Cl)c1F [Compound 52],0 to 29%

# Same assay, conditions: post-emergence, 336 h, SORVU: grain sorghum (Sorghum vulgare), 140 g ai/ha, 14 days after application, read-out: Visual Growth Reduction (%) 14 Days After Application SORVU
row,SMILES,pest or weed control at 140 g/ha
1,Cc1c(-c2cc(N)c(Cl)c(C(=O)O)n2)ccc(Cl)c1F [Compound 52],30 to 44%

# Same assay, conditions: post-emergence, 336 h, TRZSS (crop), 70 g ai/ha, 14 days after application, read-out: Visual Growth Reduction (%) 14 Days After Application TRZSS
row,SMILES,pest or weed control at 70 g/ha
1,Cc1c(-c2cc(N)c(Cl)c(C(=O)O)n2)ccc(Cl)c1F [Compound 52],45 to 59%

# Same assay, conditions: post-emergence, 336 h, TRZSS (crop), 140 g ai/ha, 14 days after application, read-out: Visual Growth Reduction (%) 14 Days After Application TRZSS
row,SMILES,pest or weed control at 140 g/ha
1,Cc1c(-c2cc(N)c(Cl)c(C(=O)O)n2)ccc(Cl)c1F [Compound 52],60 to 74%

# Same assay, conditions: post-emergence, 336 h, ZEAMX: maize, corn (Zea mays), 70 g ai/ha, 14 days after application, read-out: Visual Growth Reduction (%) 14 Days After Application ZEAMX
row,SMILES,pest or weed control at 70 g/ha
1,Cc1c(-c2cc(N)c(Cl)c(C(=O)O)n2)ccc(Cl)c1F [Compound 52],45 to 59%

# Same assay, conditions: post-emergence, 336 h, ZEAMX: maize, corn (Zea mays), 140 g ai/ha, 14 days after application, read-out: Visual Growth Reduction (%) 14 Days After Application ZEAMX
row,SMILES,pest or weed control at 140 g/ha
1,Cc1c(-c2cc(N)c(Cl)c(C(=O)O)n2)ccc(Cl)c1F [Compound 52],60 to 74%

# Tested on: Key Broadleaf Weed and Crop Species
# Experiment: Post-Emergent Test II (Table 5)
# Type: in vivo
# Settings: Abutilon theophrasti, post-emergence, 336 h, ABUTH: velvetleaf (Abutilon theophrasti), application rate 70 (kg ai/ha; footnote: g ai/ha), read-out: Visual Growth Reduction (%) 14 Days After Application ABUTH
# Summary of the method: as §1
row,SMILES,pest or weed control at 70 g/ha
1,Cc1c(-c2cc(N)c(Cl)c(C(=O)O)n2)ccc(Cl)c1F [Compound 52],95 to 100%

# Same assay, conditions: Abutilon theophrasti, post-emergence, 336 h, ABUTH: velvetleaf (Abutilon theophrasti), application rate 140 (kg ai/ha; footnote: g ai/ha), read-out: Visual Growth Reduction (%) 14 Days After Application ABUTH
row,SMILES,pest or weed control at 140 g/ha
1,Cc1c(-c2cc(N)c(Cl)c(C(=O)O)n2)ccc(Cl)c1F [Compound 52],95 to 100%

# Same assay, conditions: Amaranthus retroflexus, post-emergence, 336 h, AMARE: redroot pigweed (Amaranthus retroflexus), application rate 70 (kg ai/ha; footnote: g ai/ha), read-out: Visual Growth Reduction (%) 14 Days After Application AMARE
row,SMILES,pest or weed control at 70 g/ha
1,Cc1c(-c2cc(N)c(Cl)c(C(=O)O)n2)ccc(Cl)c1F [Compound 52],95 to 100%

# Same assay, conditions: Amaranthus retroflexus, post-emergence, 336 h, AMARE: redroot pigweed (Amaranthus retroflexus), application rate 140 (kg ai/ha; footnote: g ai/ha), read-out: Visual Growth Reduction (%) 14 Days After Application AMARE
row,SMILES,pest or weed control at 140 g/ha
1,Cc1c(-c2cc(N)c(Cl)c(C(=O)O)n2)ccc(Cl)c1F [Compound 52],95 to 100%

# Same assay, conditions: Brassica napus, post-emergence, 336 h, BRSSS: oilseed rape, canola (Brassica napus), application rate 70 (kg ai/ha; footnote: g ai/ha), read-out: Visual Growth Reduction (%) 14 Days After Application BRSSS
row,SMILES,pest or weed control at 70 g/ha
1,Cc1c(-c2cc(N)c(Cl)c(C(=O)O)n2)ccc(Cl)c1F [Compound 52],95 to 100%

# Same assay, conditions: Brassica napus, post-emergence, 336 h, BRSSS: oilseed rape, canola (Brassica napus), application rate 140 (kg ai/ha; footnote: g ai/ha), read-out: Visual Growth Reduction (%) 14 Days After Application BRSSS
row,SMILES,pest or weed control at 140 g/ha
1,Cc1c(-c2cc(N)c(Cl)c(C(=O)O)n2)ccc(Cl)c1F [Compound 52],95 to 100%

# Same assay, conditions: Chenopodium album, post-emergence, 336 h, CHEAL: lambsquarters (Chenopodium album), application rate 70 (kg ai/ha; footnote: g ai/ha), read-out: Visual Growth Reduction (%) 14 Days After Application CHEAL
row,SMILES,pest or weed control at 70 g/ha
1,Cc1c(-c2cc(N)c(Cl)c(C(=O)O)n2)ccc(Cl)c1F [Compound 52],95 to 100%

# Same assay, conditions: Chenopodium album, post-emergence, 336 h, CHEAL: lambsquarters (Chenopodium album), application rate 140 (kg ai/ha; footnote: g ai/ha), read-out: Visual Growth Reduction (%) 14 Days After Application CHEAL
row,SMILES,pest or weed control at 140 g/ha
1,Cc1c(-c2cc(N)c(Cl)c(C(=O)O)n2)ccc(Cl)c1F [Compound 52],95 to 100%

# Same assay, conditions: Euphorbia heterophylla, post-emergence, 336 h, EPHHL: wild poinsettia (Euphorbia heterophylla), application rate 70 (kg ai/ha; footnote: g ai/ha), read-out: Visual Growth Reduction (%) 14 Days After Application EPHHL
row,SMILES,pest or weed control at 70 g/ha
1,Cc1c(-c2cc(N)c(Cl)c(C(=O)O)n2)ccc(Cl)c1F [Compound 52],75 to 84%

# Same assay, conditions: Euphorbia heterophylla, post-emergence, 336 h, EPHHL: wild poinsettia (Euphorbia heterophylla), application rate 140 (kg ai/ha; footnote: g ai/ha), read-out: Visual Growth Reduction (%) 14 Days After Application EPHHL
row,SMILES,pest or weed control at 140 g/ha
1,Cc1c(-c2cc(N)c(Cl)c(C(=O)O)n2)ccc(Cl)c1F [Compound 52],85 to 94%

# Same assay, conditions: Helianthus annuus, post-emergence, 336 h, HELAN: sunflower (Helianthus annuus), application rate 70 (kg ai/ha; footnote: g ai/ha), read-out: Visual Growth Reduction (%) 14 Days After Application HELAN
row,SMILES,pest or weed control at 70 g/ha
1,Cc1c(-c2cc(N)c(Cl)c(C(=O)O)n2)ccc(Cl)c1F [Compound 52],95 to 100%

# Same assay, conditions: Helianthus annuus, post-emergence, 336 h, HELAN: sunflower (Helianthus annuus), application rate 140 (kg ai/ha; footnote: g ai/ha), read-out: Visual Growth Reduction (%) 14 Days After Application HELAN
row,SMILES,pest or weed control at 140 g/ha
1,Cc1c(-c2cc(N)c(Cl)c(C(=O)O)n2)ccc(Cl)c1F [Compound 52],95 to 100%

# Same assay, conditions: Viola tricolor, post-emergence, 336 h, VIOTR: wild pansy (Viola tricolor), application rate 70 (kg ai/ha; footnote: g ai/ha), read-out: Visual Growth Reduction (%) 14 Days After Application VIOTR
row,SMILES,pest or weed control at 70 g/ha
1,Cc1c(-c2cc(N)c(Cl)c(C(=O)O)n2)ccc(Cl)c1F [Compound 52],85 to 94%

# Same assay, conditions: Viola tricolor, post-emergence, 336 h, VIOTR: wild pansy (Viola tricolor), application rate 140 (kg ai/ha; footnote: g ai/ha), read-out: Visual Growth Reduction (%) 14 Days After Application VIOTR
row,SMILES,pest or weed control at 140 g/ha
1,Cc1c(-c2cc(N)c(Cl)c(C(=O)O)n2)ccc(Cl)c1F [Compound 52],85 to 94%

# Tested on: not given
# Experiment: not given
# Settings: not given
row,melting point,SMILES
1,160 to 162 °C,Cc1c(-c2cc(N)c(Cl)c(C(=O)O)n2)ccc(Cl)c1F [Compound 52]
